pIC50: −log10 of the molar value. Like-named read-outs stand apart in the source and are kept apart here. Bridge positions count the residues as written; N and C are the ends. Ends that are not written are not given here.
Legend:
PBMCs = test: Cytotoxicity assay, resazurin method; type: cell-based, human; details: for СС50 PBMCs: Table S2, 24 h in RPMI-1640, resazurin, twice in duplicate
Experimental: (§1) Cytotoxic activity of the peptides was investigated against human peripheral blood mononuclear cells (PBMCs) and the Caco-2 epithelial monolayer as an in vitro model of the intestinal barrier using a RPMI-1640 medium and resazurin-test.
(§2) In brief, Caco-2 cells in a monolayer or 2 × 10^6 PBMCs per well were incubated with serial dilutions of the peptides for 24 h in RPMI-1640. Resazurin (Sigma, St. Louis, MO, USA) was then added at a final concentration of 70 µM and the plates were incubated for 20 h. Untreated cells (F0) and cells treated by 0.1% Triton X-100 (Sigma-Aldrich) (Fcontrol) were used as negative and positive controls, respectively. Cell viability was assessed by resorufin fluorescence using a 535/595 nm filter and a PlateReader AF2200 as ((Fsample − F0)/(Fcontrol − F0)) × 100%. […] The experiment was carried out twice in duplicate.

Caco-2 cell monolayer = test: Cytotoxicity assay, resazurin method; type: cell-based, human; details: for concentration at which cell viability was 0% (100% cell death) / concentration at which cell viability was 50%: Caco-2 monolayer, RPMI-1640, resazurin-test; for СС50 Caco-2: Table S2, monolayer, 24 h in RPMI-1640, resazurin, twice in duplicate
Experimental: as §1, §2

[1] = not given; remark: listed apart in the source
[2] = not given; remark: listed apart in the source
[3] = not given; remark: listed apart in the source
[4] = not given; remark: listed apart in the source
[5] = not given; remark: listed apart in the source
[6] = not given; remark: listed apart in the source
[7] = not given; remark: listed apart in the source
[8] = not given; remark: listed apart in the source
[9] = not given; remark: listed apart in the source
[10] = not given; remark: listed apart in the source
[11] = not given; remark: listed apart in the source
α-chymotrypsin = details: 24 h, 37 °C, 50 mM ammonium bicarbonate buffer pH 8.0, 10 ng α-chymotrypsin per 1 μg peptide, SDS-PAGE
Experimental: (§5) For that purpose, peptides were incubated for 24 h at 50 mM ammonium bicarbonate buffer, pH 8.0, with or without protease.
(§6) The results of proteolysis were monitored by SDS-PAGE (17% T, 3%C). α-Casein, known for its susceptibility to proteolytic digestion, was used in these experiments for comparison.

trypsin = target: T1, trypsin (Bos taurus, UniProt P00760); details: 24 h, 37 °C, 50 mM ammonium bicarbonate buffer pH 8.0, 2.5 ng trypsin per 1 μg peptide, SDS-PAGE
T1 construct: gene PRSS1
T1 sequence (P00760 24-246): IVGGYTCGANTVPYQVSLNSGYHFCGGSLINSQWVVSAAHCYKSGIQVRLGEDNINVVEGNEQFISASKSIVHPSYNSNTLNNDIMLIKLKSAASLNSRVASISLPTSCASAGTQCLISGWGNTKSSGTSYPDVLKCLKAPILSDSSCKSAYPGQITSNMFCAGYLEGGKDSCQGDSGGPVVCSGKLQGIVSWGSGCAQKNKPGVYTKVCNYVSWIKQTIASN
Experimental: as §5, §6

[12] = test system: C. albicans clinical isolate 9.1; details: Table 2; resistant clinical isolate 9.1; Sabouraud broth, 30 °C, 24 h, 100% inhibition
Experimental: (§3) Using the two-fold serial dilution method, antifungal activities of the obtained analogues were tested against different C. albicans strains: susceptible collection strain ATCC 18804; resistant to azoles and anidulafungin collection strain ATCC 10231 and clinical isolates 9.1 and 8.2 [7].
(§4) The antifungal assay was performed by the microdilution method using 96-well microplates and Sabouraud broth as described earlier. […] After that, the plates were incubated at 30 °C for 24 h. A control without antifungals was also tested. Fungal growth was evaluated by measuring absorbance at 630 nm. […] All the experiments were performed twice in triplicate. Microscopic analysis of fungal growth was performed using inverted microscopy (Olympus, Tokyo, Japan). A 0.1% BSA solution was used for the blocking of each microplates well to prevent the adsorption of antifungal agents.

[13] = test system: C. albicans clinical isolate 8.2; details: Table 2; resistant clinical isolate 8.2; Sabouraud broth, 30 °C, 24 h, 100% inhibition
Experimental: as §3, §4

C. albicans ATCC 18804 [14] = details: Sabouraud broth
Experimental: as §3, §4

C. albicans ATCC 10231 = details: Table 2; strain resistant to azoles and anidulafungin; Sabouraud broth, 30 °C, 24 h, 100% inhibition
Experimental: as §3, §4

[15] = test system: human red blood cells (hRBCs)
Experimental: All procedures were approved by the Ethics Committee of the Institute of Experimental Medicine (protocol 1/20 of 2/27/2020) and comply with the ethical principles of the Declaration of Helsinki. […] Samples were centrifuged to sediment intact red blood cells. Supernatants containing released hemoglobin were transferred to 96-well microplates, and absorbance was measured at 405 nm. Untreated hRBCs in PBS (A0) and hRBC treated with 0.1% Triton X-100 (Sigma-Aldrich) (Acontrol) were used as negative and positive controls, respectively. The percentage of hemolysis was calculated as [(Asample − A0)/(Acontrol − A0)] × 100%. The experiment was carried out twice in duplicate.

C. albicans ATCC 18804 [16] = test: Checkerboard antifungal assay; type: cell-based; details: Sabouraud broth, 24 h, 30 °C, synergism at FICI ≤ 0.5, additive action at 0.5 < FIC ≤ 1
Experimental: All three selected analogues acted synergistically with caspofungin, and the FICI value for NaD1-2 was lower than that of the tobacco defensin.
Two-fold serial dilutions of each test agent were prepared in 96-well microplates in water or 1% DMSO in the case of caspofungin and mixed with equal volumes of suspensions of C. albicans cells (4 × 10^4 cells/mL) in Sabouraud broth, followed by 24 h incubation at 30 °C. Controls containing DMSO at a final concentration of 0.5% (cells only and single agent dilutions) were included in all caspofungin combination assays. […] To assess the combined effect of antifungal substances, the fractional inhibitory concentration index (FICI) was calculated as FICI = ([A])/([MICA]) + ([B])/([MICB]), where [MICA] and [MICB] are the MICs of the substances A and B, respectively, and [A] and [B] are the concentrations of the substances A and B in iso-effective combinations, respectively.

[17] = Table 2, 30 °C, 24 h, 100% inhibition of fungal growth, absorbance 630 nm, two-fold dilutions, twice in triplicate
[18] = Table 3, No Salts, 50% inhibition of fungal growth
[19] = Table 3, No Salts, 100% inhibition of fungal growth

CC[C@H](C)[C@H](NC(=O)CN)C(=O)NCC(=O)N[C@@H](C)C(=O)N[C@H](C(=O)N[C@@H](CC(C)C)C(=O)N[C@@H](CCCCN)C(=O)N[C@H](C(=O)N[C@@H](CC(C)C)C(=O)N[C@H](C(=O)N[C@H](C(=O)NCC(=O)N[C@@H](CC(C)C)C(=O)N1CCC[C@H]1C(=O)N[C@@H](C)C(=O)N[C@@H](CC(C)C)C(=O)N[C@H](C(=O)N[C@@H](CO)C(=O)N[C@@H](Cc1c[nH]c2ccccc12)C(=O)N[C@H](C(=O)N[C@@H](CCCCN)C(=O)N[C@@H](CCCNC(=N)N)C(=O)N[C@@H](CCCCN)C(=O)N[C@@H](CCCNC(=N)N)C(=O)N[C@@H](CCC(N)=O)C(=O)N[C@@H](CCC(N)=O)C(N)=O)[C@@H](C)CC)[C@@H](C)CC)[C@@H](C)O)[C@@H](C)O)C(C)C)C(C)C [melittin]
СС50 PBMCs (PBMCs): 6.10 µM
concentration at which cell viability was 0% (100% cell death) (Caco-2 cell monolayer): ~12.5 µM
concentration at which cell viability was 50% (Caco-2 cell monolayer): ~2.5 µM
СС50 Caco-2 (Caco-2 cell monolayer): 2.35 µM

H-RECKTESNTFPGICITKPPCRKACISEKFTDGHCSKIRRRCLCRRPC-OH (disulfide 3-47, 14-34, 20-41, 24-43)
α-Helix, DPC micelles: 14.1%
Random, aqueous solution [1]: 37.7%
Random, SDS micelles [2]: 31%
α-Helix, aqueous solution [3]: 8.9%
β-Sheet, aqueous solution [4]: 30.7%
β-Sheet, SDS micelles [5]: 30.8%
α-Helix, SDS micelles [6]: 16.6%
β-Turn, aqueous solution [7]: 22.7%
β-Turn, DPC micelles [8]: 21.7%
β-Sheet, DPC micelles [9]: 31.2%
Random, DPC micelles [10]: 32.9%
β-Turn, SDS micelles [11]: 21.7%

H-RECKTESNTFPGICITKPPCRKACISEKFTDGHCSRIRRRCLCTKPC-OH (disulfide 3-47, 14-34, 20-41, 24-43)
α-Helix, DPC micelles: 7.6%
Random, aqueous solution [1]: 35.6%
Random, SDS micelles [2]: 31.9%
α-Helix, aqueous solution [3]: 5.6%
β-Sheet, aqueous solution [4]: 36.8%
β-Sheet, SDS micelles [5]: 40.4%
α-Helix, SDS micelles [6]: 6.5%
β-Turn, aqueous solution [7]: 22%
β-Turn, DPC micelles [8]: 22%
β-Sheet, DPC micelles [9]: 35.8%
Random, DPC micelles [10]: 34.6%
β-Turn, SDS micelles [11]: 21.3%

RECKTESNTFPGICITKPPCRKACISEKFTDGHCSKILRRCLCTKPC (disulfide 3-47, 14-34, 20-41, 24-43) [NaD1]
stability to chymotrypsin digestion (α-chymotrypsin): high stability
α-Helix, DPC micelles: 9.3%
Random, aqueous solution [1]: 35.8%
Random, SDS micelles [2]: 31%
α-Helix, aqueous solution [3]: 7.5%
β-Sheet, aqueous solution [4]: 35.4%
stability to trypsin digestion (trypsin): high stability
β-Sheet, SDS micelles [5]: 31%
MIC [12]: 6.25 µM
MIC [13]: 6.25 µM
pIC50 (C. albicans ATCC 18804 [14]; 50 mM NaCl, 50% inhibition): 4.60 to 4.90
MIC (C. albicans ATCC 18804 [14]; 50 mM NaCl, 100% inhibition): 50 µM
pIC50 (C. albicans ATCC 18804 [14]; 150 mM NaCl, 50% inhibition): < 4.30
MIC (C. albicans ATCC 18804 [14]; [17]): 6.25 µM
pIC50 (C. albicans ATCC 18804 [14]; [18]): 5.50 to 5.81
MIC (C. albicans ATCC 18804 [14]; [19]): 6.25 µM
pIC50 (C. albicans ATCC 18804 [14]; […] CaCl2, 50% inhibition): < 4.30
MIC (C. albicans ATCC 18804 [14]; […] CaCl2, 100% inhibition): >50 µM
pIC50 (C. albicans ATCC 18804 [14]; […] MgCl2, 50% inhibition): 5.20 to 5.50
MIC (C. albicans ATCC 18804 [14]; […] MgCl2, 100% inhibition): 12.5 µM
MIC (C. albicans ATCC 10231): 6.25 µM
α-Helix, SDS micelles [6]: 15.8%
β-Turn, aqueous solution [7]: 21.3%
β-Turn, DPC micelles [8]: 21.1%
Hemolysis at 100 µM ([15]; 100 µM): 14%
β-Sheet, DPC micelles [9]: 35.4%
Random, DPC micelles [10]: 34.2%
FICI LL-37 (C. albicans ATCC 18804 [16]; combination of the peptide with LL-37): 0.38
FICI Casp (C. albicans ATCC 18804 [16]; combination of the peptide with caspofungin): 0.31
β-Turn, SDS micelles [11]: 22.2%
cell viability (PBMCs; PBMCs, peptide 100 μM, RPMI-1640, resazurin-test): approximately 72%
СС50 PBMCs (PBMCs): > 100 µM
concentration at which cell viability was 0% (100% cell death) (Caco-2 cell monolayer): 37.5 µM
concentration at which cell viability was 50% (Caco-2 cell monolayer): 10.5 µM
СС50 Caco-2 (Caco-2 cell monolayer): 10.5 µM

H-RECKTESNTFPGICITKPPCRKACISEKFTDGHCSKILRRCLCRRPC-OH (disulfide 3-47, 14-34, 20-41, 24-43)
α-Helix, DPC micelles: 15.8%
Random, aqueous solution [1]: 38.9%
Random, SDS micelles [2]: 32.5%
α-Helix, aqueous solution [3]: 7.6%
β-Sheet, aqueous solution [4]: 29.8%
β-Sheet, SDS micelles [5]: 28.5%
α-Helix, SDS micelles [6]: 16.2%
β-Turn, aqueous solution [7]: 23.7%
β-Turn, DPC micelles [8]: 22.6%
β-Sheet, DPC micelles [9]: 30.4%
Random, DPC micelles [10]: 31.1%
β-Turn, SDS micelles [11]: 22.7%

H-RECKTESNTFPGICITKPPCRKACISEKFTDGHCSKIRRRCLCTKPC-OH (disulfide 3-47, 14-34, 20-41, 24-43)
α-Helix, DPC micelles: 15.5%
Random, aqueous solution [1]: 36.2%
Random, SDS micelles [2]: 31.2%
α-Helix, aqueous solution [3]: 8.3%
β-Sheet, aqueous solution [4]: 34.3%
β-Sheet, SDS micelles [5]: 32.8%
α-Helix, SDS micelles [6]: 14.2%
β-Turn, aqueous solution [7]: 21.2%
β-Turn, DPC micelles [8]: 20.5%
β-Sheet, DPC micelles [9]: 31.1%
Random, DPC micelles [10]: 32.9%
β-Turn, SDS micelles [11]: 21.8%

RECKTESNTFPGICITKPPCRKACISEKFTDGHCRGFRRRCLCTKPC (disulfide 3-47, 14-34, 20-41, 24-43) [NaD1-L5]
α-Helix, DPC micelles: 18.2%
Random, aqueous solution [1]: 39.3%
Random, SDS micelles [2]: 35.9%
α-Helix, aqueous solution [3]: 13.5%
β-Sheet, aqueous solution [4]: 22.9%
β-Sheet, SDS micelles [5]: 23%
MIC [12]: 6.25 µM
MIC [13]: 25 µM
pIC50 (C. albicans ATCC 18804 [14]; 50 mM NaCl, 50% inhibition): 4.30 to 4.60
MIC (C. albicans ATCC 18804 [14]; 50 mM NaCl, 100% inhibition): 50 µM
pIC50 (C. albicans ATCC 18804 [14]; 150 mM NaCl, 50% inhibition): < 4.30
MIC (C. albicans ATCC 18804 [14]; 150 mM NaCl, 100% inhibition): >50 µM
MIC (C. albicans ATCC 18804 [14]; [17]): 6.25 µM
pIC50 (C. albicans ATCC 18804 [14]; [18]): 5.20 to 5.50
MIC (C. albicans ATCC 18804 [14]; [19]): 6.25 µM
pIC50 (C. albicans ATCC 18804 [14]; […] CaCl2, 50% inhibition): 4.30 to 4.60
MIC (C. albicans ATCC 18804 [14]; […] CaCl2, 100% inhibition): 50 µM
pIC50 (C. albicans ATCC 18804 [14]; […] MgCl2, 50% inhibition): 4.60 to 4.90
MIC (C. albicans ATCC 18804 [14]; […] MgCl2, 100% inhibition): 50 µM
MIC (C. albicans ATCC 10231): 6.25 µM
α-Helix, SDS micelles [6]: 17.8%
β-Turn, aqueous solution [7]: 24.3%
β-Turn, DPC micelles [8]: 22.3%
Hemolysis at 100 µM ([15]; Table S2, 4% v/v hRBCs in PBS, 2 h, 37 °C): no hemolysis
β-Sheet, DPC micelles [9]: 24.1%
Random, DPC micelles [10]: 35.5%
β-Turn, SDS micelles [11]: 23.4%
СС50 Caco-2 (Caco-2 cell monolayer): > 150 µM
cytotoxic effects on Caco-2 cells (Caco-2 cell monolayer; in words, at a concentration of 150 µM): practically no cytotoxic effects
